The record followed here is patent US20150147411A1, “COMPOSITION FOR PREVENTING OR TREATING COLITIS COMPRISING S-ALLYL-L-CYSTEINE AS ACTIVE INGREDIENT, AND MEDICAL PREPARATION COMPRISING SAME” (PHARMAKING CO., LTD., priority 2012, published 2015).

Holding throughout (format): in vivo, C57BL6 mice
Data set [1] in a line: Side effects of S-allyl-L-cysteine. An excerpt: Cyclosporine or prednisolone, which are […] used to treat colitis thanks to their immunosuppressive effects, are reported to have the side effect of weight gain.
The anti-inflammatory agents including mesalizine or mesalazine, NSAIDs, etc. are known to cause various side effects such as hypersensitive reactions, nausea, vomiting, headache, etc.

Data set [2] deals with dextran sodium sulfate (DSS)-induced colitis mouse models. The data set can be described thus: Pathological observation of colon by H&E staining, total pathologic score. On the procedure: (§1) For use in testing therapeutic effects of the agents of Examples, Comparative Examples, and Control Examples, the mice (G1 to G7) were fed with a 2.5 wt % aqueous dextran sodium sulfate (DSS) solution to induce inflammatory bowel disease therein.
Colon specimens taken were fixed in a 10% formalin solution and stained with hematoxylin & eosin (H&E stain), and their images are given in FIG. 5. Further, they were evaluated through a blind test under the criteria of a total of six histopathological opinions on inflammation (inflammation, follicle aggregation, oedema, erosion/ulceration, crypt loss, and infiltration of mono- and polymorphonuclear cells), and scored. Total pathologic scores obtained by summing up scores for each items and for the six opinions are depicted in FIG. 6.

Data set [3] deals with Malondialdehyde (MDA). The data set can be described thus: Anti-oxidant activity: malondialdehyde (MDA), lipid peroxidation.
Source text: as §1
Malondialdehyde (MDA), accounting for the degree of lipid peroxidation, a representative marker of oxidation stress, was quantified.

The test system of data set [4] is IL-6. The data set can be described thus: Level of inflammatory cytokine IL-6. Particulars: G3 to G6 (12.5-100 mg/kg), FIG. 8, equivalency to control G7. On the procedure:
as §1
(§2) Levels of IL-1β IL-6, IL-12, and TNF-α, which are representative inflammation-inducing cytokines, were measured. […] The observation results are depicted in […].

For data set [5], the system named is TNF-α. Put plainly: Level of inflammatory cytokine TNF-α. Particulars: G3 to G6 (12.5-100 mg/kg), FIG. 9, equivalency to control G7. On the procedure:
as §1, §2

The test system of data set [6] is dextran sodium sulfate (DSS)-induced colitis mouse models. Put plainly: Disease Activity Index (DAI) score, DSS-induced colitis.
Source text: as §1
(§3) At the end of the test, Disease Activity Index (DAI) Scores were made in consideration of the degree of hematochezia and diarrhea, and are depicted in FIG. 3. In the graph, # represents significance (p<0.0001) compared to the normal (G1), and * represents significance (p<0.05), compared to the colitis animal model.

Data set [7] relates to IL-1β. Put plainly: Level of inflammatory cytokine IL-1β. As to conditions: G3 to G6 (12.5-100 mg/kg), FIG. 7, equivalency to control G7. On the procedure:
as §1, §2

Data set [8] is described as follows: Body weight of mice pre-treated with compositions, DSS-induced colitis. On the procedure: In this experiment, C57BL6 mice were employed for the following reasons. The experimental animals are widely used throughout the world and are evaluated as being suitable for validity assays. In addition, because a great amount of fundamental test data on various disease models of the animals has been accumulated, the data can be utilized in analyzing and assessing test results. When purchased from OrientBio Inc. the experimental animals weighed 18 g±20%. They were bred under a light intensity of 150˜300 Lux in the controlled condition of 12:12-h light-dark cycles, with at least 10 ventilation rounds per hour.
as §1
Weights are expressed as mean±standard deviation.
From Jan. 12, 2012, the mice were allowed to drink an aqueous DSS 2.5 wt % solution for 7 days. DSS-induced diarrhea or hematochezia caused mice in groups G2 to G7 to lose weight, as compared at the point of DSS treatment.

The subject of data set [9] is COX-2. The data set can be described thus: COX-2 expression in colon tissue by immunofluorescence. On the procedure:
as §1
The immunofluorescence of COX-2 was performed on paraffin unstained slides of animal tissues.

For data set [10], the system named is dextran sodium sulfate (DSS)-induced colitis mouse models. The data set can be described thus: Colon length from cecum to end of colon, DSS-induced colitis. Particulars: G3 to G6 (12.5-100 mg/kg) compared to Comparative Example, with statistical significance, FIG. 4.
Source text: as §1
After 7 days of DSS drinking, the mice were sacrificed in an ether anesthetized condition, and the colon was excised.
as §3

The subject of data set [11] is IL-12. Put plainly: Level of inflammatory cytokine IL-12. Particulars: G3 to G6 (12.5-100 mg/kg), FIG. 10, equivalency to control G7. On the procedure: as §1, §2
Data set [12] concerns total antioxidant concentration. The data set can be described thus: Anti-oxidant activity: total antioxidant concentrations in tissues. As to conditions: G3 (12.5 mg/kg) compared to the DSS-treated group.
Source text: as §1
Its amount was discovered to decrease at a low concentration of S-allyl-L-cysteine as in G3 and G4, with statistical significance.

For `C=CCSC[C@H](N)C(=O)O` [Example 1, S-allyl-L-cysteine], the “Side effect of weight gain” value in [1] (G3 to G6 (12.5-100 mg/kg)) is “not cause the side effect of weight gain”. Also, the “Side effects (hypersensitive reactions, nausea, vomiting, headache, etc.)” value in data set [1] (G3 to G6, extended test period of 12 weeks) was “did not suffer from the side effects”. Further, the “Rehabilitation of mucosal tissues by total pathologic score” value in data set [2] (G3 (12.5 mg/kg), FIG. 6) is given as “best rehabilitation of mucosal tissues”. In addition, the “Histology of intestinal mucosa tissues (H&E)” value in [2] (G3 to G6 (12.5-100 mg/kg), FIG. 5) is “recovered the intestinal mucosa tissues to a normal state”. The “Total pathologic score (H&E)” value in data set [2] (G3 to G6 (12.5-100 mg/kg), FIG. 6) is reported as “lowered the pathologic score”. In data set [2] (G3 to G6 vs G7 (Control 50 mg/kg)), the “Therapeutic effect (pathologic score) compared with control G7” value was “equivalent to or higher than that of the control G7”. Also, the “Amount of malondialdehyde (MDA)” value in data set [3] (G3 and G4 (12.5 and 25 mg/kg), with statistical significance) is on record as “decrease”. Besides, the “Level of MDA” value in data set [3] (G3 to G6 (12.5-100 mg/kg), equivalency or superiority to control G7) is “decreased the level of MDA”. The “Expression level of IL-6” value in [4] is “decreased expression levels”. In [5], the “Expression level of TNF-α” value is “decreased expression levels”. In data set [6] (G3 to G6 (12.5-100 mg/kg) vs G7 (Control 50 mg/kg)), the “Therapeutic effects (DAI, colon length) compared with conventional agent (G7)” value is “equivalent to or higher than those of the conventional agent”. Besides, the “Disease Activity Index (DAI) score” value in [6] (G3 to G6 (12.5-100 mg/kg), DSS 2.5 wt %, end of test, FIG. 3) is recorded as “score low in DAI”. Also, in data set [7], the “Expression level of IL-1β” value is “decreased expression levels”. For the same compound, the “Body weight (mean ± standard deviation)” value in data set [8] (G3, Ex. 1 12.5 mg/kg, 2012.01.12, at the time of DSS treatment, 12.5 mg/kg) stood at 22.1 ± 2.4 g; in data set [8] (G3, Ex. 1 12.5 mg/kg, 2012.01.18, at autopsy after 7 days DSS 2.5 wt %, 12.5 mg/kg), 20.3 ± 2.2 g; in [8] (G4, Ex. 1 25 mg/kg, 2012.01.12, at the time of DSS treatment, 25 mg/kg), 22.8 ± 0.8 g; in data set [8] (G4, Ex. 1 25 mg/kg, 2012.01.18, at autopsy after 7 days DSS 2.5 wt %, 25 mg/kg), 20.5 ± 0.9 g; in data set [8] (G5, Ex. 1 50 mg/kg, 2012.01.12, at the time of DSS treatment, 50 mg/kg), 22.9 ± 1.1 g; in data set [8] (G5, Ex. 1 50 mg/kg, 2012.01.18, at autopsy after 7 days DSS 2.5 wt %, 50 mg/kg) it was 21.4 ± 0.8 g. Further, the “Body weight (mean ± standard deviation)” value in data set [8] (G6, Ex. 1 100 mg/kg, 2012.01.12, at the time of DSS treatment, 100 mg/kg) worked out at 22.2 ± 1.3 g; in data set [8] (G6, Ex. 1 100 mg/kg, 2012.01.18, at autopsy after 7 days DSS 2.5 wt %, 100 mg/kg), 21.6 ± 0.7 g. For the same compound, the COX-2 expression level result in [9] (G3 (12.5 mg/kg)) is given as “significantly increased”; in [9] (other test groups (G4 to G6, 25-100 mg/kg)), “significantly decrease”. Besides, in data set [9] (G3 to G6 (12.5-100 mg/kg), immunofluorescence, FIG. 13), the “COX-2 expression levels in mucosal tissues” value is “reduced COX-2 expression levels”. Moreover, in data set [9] (G4 to G6 (25-100 mg/kg), immunofluorescence), the “COX-2 expression in the fascial tissue” value was “inhibited COX-2 expression even in the fascial tissue”. Besides, the Colon length result in data set [10] is given as “recovered the colon length”. The “Expression level of IL-12” value in [11] is “decreased expression levels”. In data set [12], the “Total antioxidant concentration in tissues” value is “increase in antioxidant concentration”.

As for `O=C(NC(Cc1cc(=O)[nH]c2ccccc12)C(=O)O)c1ccc(Cl)cc1` (stereo not drawn) [Control, Rebamipide, reference compound], in data set [1] (control G7, extended test period of 12 weeks), the “Side effects (hypersensitive reactions, nausea, vomiting, headache, etc.)” value is reported as “side effects detected”. Also, the “Body weight (mean ± standard deviation)” value in data set [8] (G7, Control 50 mg/kg, 2012.01.12, at the time of DSS treatment) is 23.2 ± 1.2 g; in [8] (G7, Control 50 mg/kg, 2012.01.18, at autopsy after 7 days DSS 2.5 wt %) it was 21.1 ± 0.9 g. Also, in data set [9] (G7 (Control 50 mg/kg), immunofluorescence), the “COX-2 expression in the fascial tissue beneath the mucosal tissue” value is “did not effectively do so”. In addition, in [9] (G7 (Control 50 mg/kg), immunofluorescence, FIG. 13), the “COX-2 expression in mucosal tissues” value was “inhibited COX-2 expression in mucosal tissues”.
